According to patent publication US20250213555A1, “SUBSTITUTED TETRAHYDROFURAN ANALOGS AS MODULATORS OF SODIUM CHANNELS” (VERTEX PHARMACEUTICALS INCORPORATED, priority 2021, published 2025):

What follows are molecules tested against human Nav 1.8 (Homo sapiens, UniProt Q9Y5Y9) (assay: E-VIPR assay detecting and measuring Nav inhibition properties). Conditions: HEK cells expressing a truncated form of human Nav 1.8; compound numbers without "*" (not marked as run in the presence of human serum); read-out: measured IC50 value in the E-VIPR Assay.
Assay type: cell-based
Method in brief: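 Nav inhibition was read by E-VIPR: cells were electrically stimulated while coumarin/oxonol FRET emissions were recorded. Cells were HEK expressing a truncated human Nav 1.8 and co-transduced with KIR2.1, and were assayed in 25% final human serum.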

Sequence of human Nav 1.8 (Q9Y5Y9 126-399 limits assumed): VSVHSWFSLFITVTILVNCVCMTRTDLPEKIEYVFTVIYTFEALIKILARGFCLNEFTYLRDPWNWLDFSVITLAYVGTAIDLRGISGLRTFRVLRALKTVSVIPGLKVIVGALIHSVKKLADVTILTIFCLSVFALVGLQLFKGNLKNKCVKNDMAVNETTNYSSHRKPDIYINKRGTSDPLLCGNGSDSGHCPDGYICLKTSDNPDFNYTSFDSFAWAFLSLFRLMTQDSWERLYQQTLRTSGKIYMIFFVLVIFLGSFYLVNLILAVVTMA
Sequence of human Nav 1.8 (Q9Y5Y9 660-890 limits assumed): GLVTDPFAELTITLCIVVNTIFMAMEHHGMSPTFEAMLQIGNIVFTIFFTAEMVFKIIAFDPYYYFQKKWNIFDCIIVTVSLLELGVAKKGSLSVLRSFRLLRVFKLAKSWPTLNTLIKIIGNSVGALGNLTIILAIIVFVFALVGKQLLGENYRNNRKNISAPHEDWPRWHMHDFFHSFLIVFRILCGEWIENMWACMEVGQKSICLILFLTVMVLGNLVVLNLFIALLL
Sequence of human Nav 1.8 (Q9Y5Y9 1148-1722 limits assumed): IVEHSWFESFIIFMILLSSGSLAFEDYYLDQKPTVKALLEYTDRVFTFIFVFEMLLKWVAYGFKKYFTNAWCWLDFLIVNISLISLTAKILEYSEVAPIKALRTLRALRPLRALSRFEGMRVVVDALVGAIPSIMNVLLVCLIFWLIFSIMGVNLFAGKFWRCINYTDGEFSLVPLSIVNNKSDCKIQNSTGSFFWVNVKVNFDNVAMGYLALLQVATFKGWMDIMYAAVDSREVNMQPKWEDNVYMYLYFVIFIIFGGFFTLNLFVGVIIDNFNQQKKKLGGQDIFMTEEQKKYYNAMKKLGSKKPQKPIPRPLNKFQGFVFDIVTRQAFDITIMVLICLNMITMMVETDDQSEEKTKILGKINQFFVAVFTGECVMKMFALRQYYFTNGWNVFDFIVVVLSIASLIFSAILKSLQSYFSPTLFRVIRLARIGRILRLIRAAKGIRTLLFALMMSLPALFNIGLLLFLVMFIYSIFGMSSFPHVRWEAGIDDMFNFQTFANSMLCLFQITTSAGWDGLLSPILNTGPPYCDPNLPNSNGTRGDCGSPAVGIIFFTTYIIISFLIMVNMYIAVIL

Compared with `COc1c([C@H]2[C@H](C(=O)Nc3cc(C(N)=O)ncc3[Si](C)(C)C)O[C@@](C)(C(F)(F)F)[C@H]2C)ccc(F)c1F` [Compound 23, 4-((2R,3S,4S,5R)-3-(3,4-difluoro-2-methoxyphenyl)-4,5-dimethyl-5-(trifluoromethyl)tetrahydrofuran-2-carboxamido)-5-(trimethylsilyl)picolinamide], `COc1c([C@H]2[C@H](C(=O)Nc3cc(C(=O)N4CCN(C)CC4)ncc3C)O[C@@](C)(C(F)(F)F)[C@H]2C)ccc(F)c1F` [Compound 12, (2R,3S,4S,5R)-3-(3,4-difluoro-2-methoxyphenyl)-4,5-dimethyl-N-(5-methyl-2-(4-methylpiperazine-1-carbonyl)pyridin-4-yl)-5-(trifluoromethyl)tetrahydrofuran-2-carboxamide] is lower in IC50: 100 to 1000 nM for the first, 10 to 100 nM for the second.

`C[C@@H](COc1c([C@H]2[C@H](C(=O)Nc3ccnc(C(N)=O)c3)O[C@@](C)(C(F)(F)F)[C@H]2C)ccc(F)c1F)N1CC2(COC2)C1` [Compound 40, 4-((2R,3S,4S,5R)-3-(2-((S)-2-(2-oxa-6-azaspiro[3.3]heptan-6-yl)propoxy)-3,4-difluorophenyl)-4,5-dimethyl-5-(trifluoromethyl)tetrahydrofuran-2-carboxamido)picolinamide] and `C[C@H]1[C@@H](c2ccc(F)c(F)c2OCCN2CC3(COC3)C2)[C@H](C(=O)Nc2ccnc(C(N)=O)c2)O[C@@]1(C)C(F)(F)F` [Compound 53, 4-((2R,3S,4S,5R)-3-(2-(2-(2-oxa-6-azaspiro[3.3]heptan-6-yl)ethoxy)-3,4-difluorophenyl)-4,5-dimethyl-5-(trifluoromethyl)tetrahydrofuran-2-carboxamido)picolinamide] cannot be ordered by IC50: under 10 nM for the first, under 10 nM for the second.

`CN[C@H]1CN(C(=O)c2cc(NC(=O)[C@@H]3O[C@@](C)(C(F)(F)F)[C@@H](C)[C@H]3c3ccc(F)c(F)c3OC)ccn2)C[C@@H]1OC` [Compound 256, (2R,3S,4S,5R)-3-(3,4-difluoro-2-methoxyphenyl)-N-(2-((3S,4S)-3-methoxy-4-(methylamino)pyrrolidine-1-carbonyl)pyridin-4-yl)-4,5-dimethyl-5-(trifluoromethyl)tetrahydrofuran-2-carboxamide] and `COc1c([C@H]2[C@H](C(=O)Nc3ccnc(C(=O)N4C[C@@H](OC)[C@@H](N(C)C)C4)c3)O[C@@](C)(C(F)(F)F)[C@H]2C)ccc(F)c1F` [Compound 298, (2R,3S,4S,5R)-3-(3,4-difluoro-2-methoxyphenyl)-N-(2-((3S,4R)-3-(dimethylamino)-4-methoxypyrrolidine-1-carbonyl)pyridin-4-yl)-4,5-dimethyl-5-(trifluoromethyl)tetrahydrofuran-2-carboxamide] cannot be ordered by IC50: under 10 nM for the first, under 10 nM for the second.

`C[C@H]1[C@@H](c2ccc(F)c(F)c2OCC(=NO)C2(F)CC2)[C@H](C(=O)Nc2ccnc(C(N)=O)c2)O[C@@]1(C)C(F)(F)F` [Compound 190, 4-((2R,3S,4S,5R)-3-(3,4-difluoro-2-(2-(1-fluorocyclopropyl)-2-(hydroxyimino)ethoxy)phenyl)-4,5-dimethyl-5-(trifluoromethyl)tetrahydrofuran-2-carboxamido)picolinamide] and `C[C@H]1[C@@H](c2ccc(F)c(F)c2OCC2(O)CC2)[C@H](C(=O)Nc2ccnc(C(N)=O)c2)O[C@@]1(C)C(F)(F)F` [Compound 159, 4-((2R,3S,4S,5R)-3-(3,4-difluoro-2-((1-hydroxycyclopropyl)methoxy)phenyl)-4,5-dimethyl-5-(trifluoromethyl)tetrahydrofuran-2-carboxamido)picolinamide] cannot be ordered by IC50: under 10 nM for the first, under 10 nM for the second.

Compared with `C[C@H]1[C@@H](c2ccc(C(F)F)nc2OCCO)[C@H](C(=O)Nc2ccnc(C(N)=O)c2)O[C@@]1(C)C(F)(F)F` [Compound 208, 4-((2R,3S,4S,5R)-3-(6-(difluoromethyl)-2-(2-hydroxyethoxy)pyridin-3-yl)-4,5-dimethyl-5-(trifluoromethyl)tetrahydrofuran-2-carboxamido) picolinamide], `CNCCOc1c([C@H]2[C@H](C(=O)Nc3ccnc(C(N)=O)c3)O[C@@](C)(C(F)(F)F)[C@H]2C)ccc(F)c1F` [Compound 114, 4-((2R,3S,4S,5R)-3-(3,4-difluoro-2-(2-(methylamino)ethoxy)phenyl)-4,5-dimethyl-5-(trifluoromethyl)tetrahydrofuran-2-carboxamido)picolinamide] is lower in IC50: 100 to 1000 nM for the first, 10 to 100 nM for the second.

`C[C@H]1[C@@H](c2ccc(F)c(F)c2OCCN2CC3CC(C2)O3)[C@H](C(=O)Nc2ccnc(C(N)=O)c2)O[C@@]1(C)C(F)(F)F` [Compound 110, 4-((2R,3S,4S,5R)-3-(2-(2-(6-oxa-3-azabicyclo[3.1.1]heptan-3-yl)ethoxy)-3,4-difluorophenyl)-4,5-dimethyl-5-(trifluoromethyl)tetrahydrofuran-2-carboxamido)picolinamide] and `C[C@H]1[C@@H](c2ccc(F)c(F)c2OCCN2CCC23COC3)[C@H](C(=O)Nc2ccnc(C(N)=O)c2)O[C@@]1(C)C(F)(F)F` [Compound 125, 4-((2R,3S,4S,5R)-3-(2-(2-(6-oxa-1-azaspiro[3.3]heptan-1-yl)ethoxy)-3,4-difluorophenyl)-4,5-dimethyl-5-(trifluoromethyl)tetrahydrofuran-2-carboxamido)picolinamide] cannot be ordered by IC50: under 10 nM for the first, under 10 nM for the second.

`COc1c([C@H]2[C@H](C(=O)Nc3ccnc(C(=O)NCCN(C)C)c3)O[C@@](C)(C(F)(F)F)[C@H]2C)ccc(F)c1F` [Compound 271, 4-((2R,3S,4S,5R)-3-(3,4-difluoro-2-methoxyphenyl)-4,5-dimethyl-5-(trifluoromethyl)tetrahydrofuran-2-carboxamido)-N-(2-(dimethylamino)ethyl)picolinamide] and `CNCCN(C)C(=O)c1cc(NC(=O)[C@@H]2O[C@@](C)(C(F)(F)F)[C@@H](C)[C@H]2c2ccc(F)c(F)c2OC)ccn1` [Compound 234, 4-((2R,3S,4S,5R)-3-(3,4-difluoro-2-methoxyphenyl)-4,5-dimethyl-5-(trifluoromethyl)tetrahydrofuran-2-carboxamido)-N-methyl-N-(2-(methylamino)ethyl)picolinamide] cannot be ordered by IC50: under 10 nM for the first, under 10 nM for the second.

`COc1c([C@H]2[C@H](C(=O)Nc3ccnc(C(=O)N4CC5(CCCN5)C4)c3)O[C@@](C)(C(F)(F)F)[C@H]2C)ccc(F)c1F` [Compound 230, (2R,3S,4S,5R)-N-(2-(2,5-diazaspiro[3.4]octane-2-carbonyl)pyridin-4-yl)-3-(3,4-difluoro-2-methoxyphenyl)-4,5-dimethyl-5-(trifluoromethyl)tetrahydrofuran-2-carboxamide] and `COC[C@H]1CN(C(=O)c2cc(NC(=O)[C@@H]3O[C@@](C)(C(F)(F)F)[C@@H](C)[C@H]3c3ccc(F)c(F)c3OC)ccn2)CCN1` [Compound 248, (2R,3S,4S,5R)-3-(3,4-difluoro-2-methoxyphenyl)-N-(2-((R)-3-(methoxymethyl)piperazine-1-carbonyl)pyridin-4-yl)-4,5-dimethyl-5-(trifluoromethyl)tetrahydrofuran-2-carboxamide] cannot be ordered by IC50: under 10 nM for the first, under 10 nM for the second.

`COc1c([C@H]2[C@H](C(=O)Nc3ccnc(C(=O)N4CCN(C)C(C)(C)C4)c3)O[C@@](C)(C(F)(F)F)[C@H]2C)ccc(F)c1F` [Compound 280, (2R,3S,4S,5R)-3-(3,4-difluoro-2-methoxyphenyl)-4,5-dimethyl-5-(trifluoromethyl)-N-(2-(3,3,4-trimethylpiperazine-1-carbonyl)pyridin-4-yl)tetrahydrofuran-2-carboxamide] and `COc1c([C@H]2[C@H](C(=O)Nc3ccnc(C(=O)N4CC5CC(C4)N5C)c3)O[C@@](C)(C(F)(F)F)[C@H]2C)ccc(F)c1F` [Compound 278, (2R,3S,4S,5R)-3-(3,4-difluoro-2-methoxyphenyl)-4,5-dimethyl-N-(2-(6-methyl-3,6-diazabicyclo[3.1.1]heptane-3-carbonyl)pyridin-4-yl)-5-(trifluoromethyl)tetrahydrofuran-2-carboxamide] cannot be ordered by IC50: under 10 nM for the first, under 10 nM for the second.

`C[C@H]1[C@@H](c2ccc(F)c(F)c2OCCN=S(C)(C)=O)[C@H](C(=O)Nc2ccnc(C(N)=O)c2)O[C@@]1(C)C(F)(F)F` [Compound 130, 4-((2R,3S,4S,5R)-3-(2-(2-((dimethyl(oxo)-26-sulfaneylidene)amino)ethoxy)-3,4-difluorophenyl)-4,5-dimethyl-5-(trifluoromethyl)tetrahydrofuran-2-carboxamido)picolinamide] and `C[C@H]1[C@@H](c2ccc(F)c(F)c2OCc2cncn2C)[C@H](C(=O)Nc2ccnc(C(N)=O)c2)O[C@@]1(C)C(F)(F)F` [Compound 89, 4-((2R,3S,4S,5R)-3-(3,4-difluoro-2-((1-methyl-1H-imidazol-5-yl)methoxy)phenyl)-4,5-dimethyl-5-(trifluoromethyl)tetrahydrofuran-2-carboxamido)picolinamide] cannot be ordered by IC50: under 10 nM for the first, under 10 nM for the second.

`COCCOc1c([C@@H]2C[C@](C)(C(F)(F)F)O[C@H]2C(=O)Nc2ccnc(C(N)=O)c2)ccc(F)c1F` (relative stereo) [Compound 34, rel-4-((2R,3S,5R)-3-(3,4-difluoro-2-(2-methoxyethoxy)phenyl)-5-methyl-5-(trifluoromethyl)tetrahydrofuran-2-carboxamido)picolinamide] and `C[C@@H](Oc1c([C@H]2[C@H](C(=O)Nc3ccnc(C(N)=O)c3)O[C@@](C)(C(F)(F)F)[C@H]2C)ccc(F)c1F)C1COC1` [Compound 157, 4-((2R,3S,4S,5R)-3-(3,4-difluoro-2-((R)-1-(oxetan-3-yl)ethoxy)phenyl)-4,5-dimethyl-5-(trifluoromethyl)tetrahydrofuran-2-carboxamido)picolinamide] cannot be ordered by IC50: under 10 nM for the first, under 10 nM for the second.

For `COc1c([C@H]2[C@H](C(=O)Nc3ccnc(C(=O)N4C5CC4CN(C)C5)c3)O[C@@](C)(C(F)(F)F)[C@H]2C)ccc(F)c1F` [Compound 276, (2R,3S,4S,5R)-3-(3,4-difluoro-2-methoxyphenyl)-4,5-dimethyl-N-(2-(3-methyl-3,6-diazabicyclo[3.1.1]heptane-6-carbonyl)pyridin-4-yl)-5-(trifluoromethyl)tetrahydrofuran-2-carboxamide], the IC50 was 10 to 100 nM.
